Legend:
ISC-enriched organoids [1] = assay: Primary screen, 384-well 2.5-D organoid differentiation (ENR+CD, 6 days): carbachol-induced lysozyme secretion (LYZ.S); assay type: cell-based, murine; conditions: primary screen; for Dose.FC.LYZ.S: FC vs plate median; for Z.LYZ.S: standard z score
Description: (§1) High-throughput screening.

ISC-enriched organoids [2] = assay: Primary screen, 384-well 2.5-D organoid differentiation (ENR+CD, 6 days, Target Selective Inhibitor Library, vs whole-plate median): ATP (CellTiter-Glo 3D, CTG); conditions: primary screen; for Dose.FC.CTG: FC vs plate median; for SSMD.CTG: strictly standardized mean difference
ISC-enriched organoids [3] = assay: Primary screen, 384-well 2.5-D organoid differentiation (ENR+CD, 6 days): basal lysozyme secretion (LYZ.NS); assay type: cell-based, murine; conditions: strictly standardized mean difference, primary screen
Description: as §1

[4] = 1st of the 4 dose lines of the treatment (dose not given)
[5] = 2nd of the 4 dose lines of the treatment (dose not given)
[6] = 3rd of the 4 dose lines of the treatment (dose not given)
[7] = 4th of the 4 dose lines of the treatment (dose not given)
[8] = Dose 10.00 uM, standard z score
[9] = dose 0.08 uM, standard z score of FC
[10] = dose 0.40 uM, standard z score of FC
[11] = dose 2.00 uM, standard z score of FC
[12] = dose 10.00 uM, standard z score of FC

Compound | Z.CTG (ISC-enriched organoids [2]; Dose 0.08 uM, standard z score) | Z.CTG (ISC-enriched organoids [2]; Dose 0.40 uM, standard z score) | Z.CTG (ISC-enriched organoids [2]; Dose 2.00 uM, standard z score) | Z.CTG (ISC-enriched organoids [2]; [8]) | SSMD.CTG (ISC-enriched organoids [2]; [4]) | SSMD.CTG (ISC-enriched organoids [2]; [5]) | SSMD.CTG (ISC-enriched organoids [2]; [6]) | SSMD.CTG (ISC-enriched organoids [2]; [7]) | Z.CTG (ISC-enriched organoids [2]; [9]) | Z.CTG (ISC-enriched organoids [2]; [10]) | Z.CTG (ISC-enriched organoids [2]; [11]) | Z.CTG (ISC-enriched organoids [2]; [12]) | Dose.FC.LYZ.S (ISC-enriched organoids [1]; dose 0.08 uM, ENR+CD 6 days) [log 2 fold change] | Dose.FC.LYZ.S (ISC-enriched organoids [1]; dose 0.40 uM, ENR+CD 6 days) [log 2 fold change] | Dose.FC.LYZ.S (ISC-enriched organoids [1]; dose 2.00 uM, ENR+CD 6 days) [log 2 fold change] | Dose.FC.LYZ.S (ISC-enriched organoids [1]; dose 10.00 uM, ENR+CD 6 days) [log 2 fold change] | Dose.FC.CTG (ISC-enriched organoids [2]; dose 0.08 uM, ENR+CD 6 days) [log 2 fold change] | Dose.FC.CTG (ISC-enriched organoids [2]; dose 0.40 uM, ENR+CD 6 days) [log 2 fold change] | Dose.FC.CTG (ISC-enriched organoids [2]; dose 2.00 uM, ENR+CD 6 days) [log 2 fold change] | Dose.FC.CTG (ISC-enriched organoids [2]; dose 10.00 uM, ENR+CD 6 days) [log 2 fold change] | other results
O=c1cc(-c2cccc3c2Sc2ccccc2S3)oc(N2CCOCC2)c1 [KU-55933 (ATM Kinase Inhibitor)] | 1.251 | 1.140 | 1.317 | 1.293 | 1.626 | 1.743 | 1.554 | 1.744 |  |  |  |  |  |  |  |  |  |  |  |  | Dose.FC.LYZ.S (ISC-enriched organoids [1]; Dose 0.08 uM): 0.168 log 2 fold change; Dose.FC.LYZ.S (ISC-enriched organoids [1]; Dose 0.40 uM): 0.200 log 2 fold change; Dose.FC.LYZ.S (ISC-enriched organoids [1]; Dose 2.00 uM): 0.161 log 2 fold change; Dose.FC.LYZ.S (ISC-enriched organoids [1]; Dose 10.00 uM): 0.076 log 2 fold change; Z.LYZ.S (ISC-enriched organoids [1]; [4]): 1.088; Z.LYZ.S (ISC-enriched organoids [1]; [5]): 1.291; Z.LYZ.S (ISC-enriched organoids [1]; [6]): 1.043; Z.LYZ.S (ISC-enriched organoids [1]; [7]): 0.494; SSMD.LYZ.S (ISC-enriched organoids [1]; strictly standardized mean difference, 1st of the 4 dose lines of the treatment (dose not given)): 1.113; SSMD.LYZ.S (ISC-enriched organoids [1]; strictly standardized mean difference, 2nd of the 4 dose lines of the treatment (dose not given)): 0.994; SSMD.LYZ.S (ISC-enriched organoids [1]; strictly standardized mean difference, 3rd of the 4 dose lines of the treatment (dose not given)): 1.246; SSMD.LYZ.S (ISC-enriched organoids [1]; strictly standardized mean difference, 4th of the 4 dose lines of the treatment (dose not given)): 0.400; Dose.FC.CTG (ISC-enriched organoids [2]; Dose 0.08 uM): 0.524 log 2 fold change; Dose.FC.CTG (ISC-enriched organoids [2]; Dose 0.40 uM): 0.477 log 2 fold change; Dose.FC.CTG (ISC-enriched organoids [2]; Dose 2.00 uM): 0.551 log 2 fold change; Dose.FC.CTG (ISC-enriched organoids [2]; Dose 10.00 uM): 0.541 log 2 fold change
CC(C)(C#N)c1cc(Cn2cncn2)cc(C(C)(C)C#N)c1 [Anastrozole] |  |  |  |  |  |  |  |  | −0.279 | 0.057 | −0.139 | −1.191 |  |  |  |  |  |  |  |  | SSMD.LYZ.S (ISC-enriched organoids [1]; strictly standardized mean difference of replicates, four lines per treatment = four doses (dose not given), column head inferred): 0.304
COc1cc(CCc2cc(NC(=O)c3ccc(N4CC(C)NC(C)C4)cc3)n[nH]2)cc(OC)c1 (centres unmarked) [AZD4547] |  |  |  |  |  |  |  |  | 0.382 | 0.241 | −0.024 | −0.147 | 0.157 | 0.083 | 0.074 | −0.049 | 0.160 | 0.101 | −0.010 | −0.062 | 
CC1=C(/C=C/C(C)=C/C=C/C(C)=C\C(=O)O)C(C)(C)CCC1 [Isotretinoin] | 0.982 | 0.965 | 0.604 | 0.331 | 1.156 | 0.966 | 0.779 | 0.304 |  |  |  |  |  |  |  |  |  |  |  |  | SSMD.LYZ.NS (ISC-enriched organoids [3]; [4]): 0.753; SSMD.LYZ.NS (ISC-enriched organoids [3]; [5]): 0.312; SSMD.LYZ.NS (ISC-enriched organoids [3]; [6]): 0.410; SSMD.LYZ.NS (ISC-enriched organoids [3]; [7]): 0.680
CC(C)C[C@H](NC(=O)[C@H](Cc1ccccc1)NC(=O)c1cnccn1)B(O)O [Bortezomib (PS-341)] |  |  |  |  |  |  |  |  | −4.547 | −5.127 | −2.185 | −3.246 | −0.239 | −0.173 | −0.249 | −0.238 | −1.904 | −2.146 | −0.915 | −1.359 | 

— patent US20230398130A1, “METHODS AND COMPOSITIONS FOR DIFFERENTIATING STEM CELLS” (Massachusetts Institute of Technology, priority 2020, published 2023)
